Like-named read-outs stand apart in the source and are kept apart here.
Assays:
[1] = Shake-flask log D (n-octanol/DPBS); assay type: physicochemical; details: pH increased from 6.0 to 10.0
Procedure: Equal volumes of n-octanol and DPBS were mixed and shaken at room temperature for 24 h using an incubator shaker (Lab-Line Instruments, Inc., Melrose Park, IL, USA) to achieve mutual saturation. The pre-saturated n-octanol and DPBS phases were then carefully transferred into separate centrifuge tubes and centrifuged (Centrifuge 5430 R, Eppendorf AG, Hamburg, Germany) at 5000× g for 20 min to ensure complete phase separation.
Flu-Na solutions were prepared at a final concentration of 1 mg/mL by dissolving Flu-Na in pre-saturated DPBS, followed by pH adjustment to approximately 6, 7, 8, 9, and 10 using sodium hydroxide or hydrochloric acid solutions. […]
The concentrations of Flu-Na in both phases were measured at 492 nm using the microplate reader (SpectraMax iD5, Molecular Devices, San Jose, CA, USA). Calibration curve standards were prepared using DPBS adjusted to the corresponding pH values to ensure accurate quantification under each condition. The log D was calculated as the base-10 logarithm of the concentration ratio between the n-octanol phase and the aqueous phase.

[2] = test system: porcine nasal mucosa; test: Flu-Na permeability across IPA-damaged porcine nasal mucosa (Franz diffusion cells); assay type: in vitro ADME, Sus scrofa domesticus
Procedure: To systematically investigate this issue, nasal mucosa tissues harvested from the same pig were immersed in 10%, 50%, or 100% IPA for 30 min to induce graded levels of chemical damage. A parallel control sample was incubated in DPBS under identical conditions. Flu-Na permeability was then measured as an indicator of mucosal integrity. This experiment was independently repeated in tissues from three different pigs to ensure reproducibility. Representative images of nasal mucosa following IPA-induced damage are shown in Figure 9, and the corresponding Papp values, normalized to a standardized mucosal thickness of 0.80 mm, are presented in Figure 10.
Tissues obtained from the same pig were used to evaluate the effects of different IPA concentrations and the DPBS control within a single experimental set. To ensure reproducibility, the entire experiment was independently repeated using tissues from three different pigs.
For each experimental set, three pieces of nasal mucosa tissue from the same pig were submerged in 3 mL of IPA at concentrations of 10%, 50%, or 100% for 30 min to induce graded levels of epithelial damage. A parallel control tissue sample from the same pig was submerged in 3 mL of DPBS under identical conditions. Following exposure, all tissues were thoroughly rinsed with DPBS to remove residual solvent and were immediately mounted in Franz diffusion cells for permeability testing.
Nasal mucosal permeability was evaluated using a Phoenix™ DB-6 Franz diffusion system (Teledyne Hanson Research, Los Angeles, CA, USA), equipped with a diffusion area of 1.0 cm^2 and a receptor volume of 10 mL. The nasal mucosa was mounted between the donor and receptor chambers, with the epithelial side facing the donor compartment. […]
The Flu-Na loading solution was prepared at a fixed concentration of 1 mg/mL by dissolving 25 mg of Flu-Na in 25 mL of DPBS using volumetric flasks. […] The supernatants were collected for microplate reader (SpectraMax iD5, Molecular Devices, San Jose, CA, USA) analysis.

[3] = Ex vivo permeation across porcine nasal mucosa in Franz diffusion cells; assay type: in vitro ADME, Sus scrofa domesticus; details: pig
Procedure: (§1) Nasal mucosa tissues were carefully dissected from the lower turbinates within the nasal cavity. Immediately after excision, the tissues were immersed in chilled DPBS to prevent desiccation and to preserve structural integrity. The samples were then cut into appropriate sizes, and mucosal thickness was measured using an electronic digital caliper (Fisher Scientific, Waltham, MA, USA) as described in previous work. […] The nasal mucosa was mounted between the donor and receptor chambers, with the epithelial side facing the donor compartment. DPBS was used as the receptor medium and maintained at 37 ± 0.5 °C under continuous stirring at 600 rpm. At predetermined time points (0.5, 1, 2, 3, 4, 5, 6, 7, and 8 h), 0.5 mL of sample was withdrawn from the receptor compartment and immediately replaced with fresh DPBS to maintain sink conditions. The melatonin loading solution was prepared by dissolving an appropriate amount of melatonin powder in 5 mL of DPBS, stirring for 15 min, and filtering through a 0.2 µm nylon membrane filter (Fisher Scientific, Waltham, MA, USA). […] At the start of the experiment, 0.5 mL of melatonin loading solution was added to the donor compartment. Receptor samples collected at each time point were mixed with an equal volume of acetonitrile, vortexed, and centrifuged (AccuSpin Micro17, Fisher Scientific, Waltham, MA, USA) at 10,000× g for 20 min. The resulting supernatants were collected for HPLC analysis. […] Receptor samples collected at each time point were centrifuged (AccuSpin Micro17, Fisher Scientific, Waltham, MA, USA) directly at 10,000× g for 20 min. The supernatants were collected for microplate reader (SpectraMax iD5, Molecular Devices, San Jose, CA, USA) analysis. The permeation curve is reported as percentage of drug permeated and was computationally corrected for the withdrawn volume using an Excel (Microsoft, Redmond, WA, USA) add-in program DDSolver 1.0 [53]. Papp were calculated as described in previous work. Numerical simulations were performed using COMSOL Multiphysics® version 6.2 (COMSOL Inc., Burlington, MA, USA), following the methodology established in our previous study. The simulations were based on Fick’s law of diffusion, describing solute concentration changes over time and space within a defined three-dimensional geometry. The “Transport of Diluted Species” physics interface was employed to simulate drug diffusion dynamics, while adsorption effects were incorporated to account for drug retention within the nasal mucosa. […] To address this, the simulation model was first fitted to experimentally obtained permeation profiles to extract key transport parameters. These parameters were subsequently used to normalize each permeation curve to a standardized mucosal thickness of 0.80 mm. Thickness correction minimized the impact of variability and enabled more accurate and consistent comparisons across experimental conditions.

[4] = Visual appearance of Flu-Na solutions at different pH values; assay type: physicochemical; details: 1 mg/mL, pH 4.85
Procedure: Solutions were prepared at a concentration of 1 mg/mL, and visual appearance was recorded after pH adjustment.

[5] = set-up: method as in PMID 9232516; details: reported in the literature; cited from earlier work
[6] = set-up: method as in doi:10.2343/geochemj.2.0226; details: cited from earlier work
[7] = test system: porcine nasal mucosa; test: Ex vivo permeation across porcine nasal mucosa in Franz diffusion cells; assay type: in vitro ADME, Sus scrofa domesticus
Procedure: as §1

[8] = different-pig (inter-individual) group, n = 3, simulation-based normalization, read-out: mean Papp after normalization to standardized thickness of 0.80 mm
[9] = same-pig (intra-individual) group, n = 3, simulation-based normalization, read-out: mean Papp after normalization to standardized thickness of 0.80 mm

Row | SMILES | log D (shake-flask), pH dependency [1] | Flu-Na permeability (Papp) vs DPBS negative control, preliminary study ([2]; 10% IPA as positive control, groups from different donor pigs, unpublished data) | trend of Papp values with IPA concentration ([2]; escalating IPA concentrations (10%, 50%, and 100%), 30 min) | Flu-Na permeability (Papp) vs DPBS negative control ([2]; mucosa immersed in 10% IPA for 30 min, same pig, normalized to 0.80 mm, three pigs) | Papp at 8 h [3, 8] | Papp at 8 h [3, 9] | visual appearance of solution [4] | log P [5] | log P ([6]; pH 4.29) | log P ([6]; pH 7.5) | Papp at 8 h ([3]; different-pig (inter-individual) group, n = 3, 8 h Franz diffusion, read-out: mean Papp before thickness normalization) | Papp at 8 h, 1008 μg/mL ([3]; same-pig (intra-individual) group, n = 3, 8 h Franz diffusion, read-out: mean Papp before thickness normalization) | decrease of CV of Papp by normalization ([7]; different-pig group) | decrease of CV of Papp by normalization ([7]; same-pig group)
1 | O=C([O-])c1ccccc1-c1c2ccc(=O)cc-2oc2cc([O-])ccc12.[Na+].[Na+] [Flu-Na, Fluorescein sodium salt] | progressively more negative | paradoxical decrease | general trend of increasing Papp values | lower | 7.33 ± 1.6 ×10⁻⁶ cm/s | 5.28 ± 0.18 ×10⁻⁶ cm/s | precipitation observed | −0.67 to −1.52 |  |  |  |  |  | 
2 | O=C1OC2(c3ccc(O)cc3Oc3cc(O)ccc32)c2ccccc21 [fluorescein] |  |  |  |  |  |  |  |  | approximately 2.78 | −0.08 |  |  |  | 
3 | COc1ccc2[nH]cc(CCNC(C)=O)c2c1 [melatonin, Melatonin] |  |  |  |  | 10.5 ± 0.42 ×10⁻⁶ cm/s | 10 ± 0.78 ×10⁻⁶ cm/s |  |  |  |  | 14.6 ± 1.42 ×10⁻⁶ cm/s | 14.1 ± 3.47 ×10⁻⁶ cm/s | 5.7% | 16.8%
